Test results published in ChEMBL document CHEMBL4020736, “Synthesis and biological evaluation of novel selective androgen receptor modulators (SARMs) Part III: Discovery of 4-(5-oxopyrrolidine-1-yl)benzonitrile derivative 2f as a clinical candidate” (Bioorg Med Chem, 2017).

Experiments:
[1] = Volume of distribution at steady state in cynomolgus monkey at 0.1 mg/kg, iv by LC-MS/MS analysis; assay type: ADME, organism-based, Macaca fascicularis; settings: in vivo, read-out: Vdss
Canis familiaris = assay: Toxicity in iv dosed Beagle dog assessed as effect on electrocardiography administered via single dose; assay type: organism-based, Canis lupus familiaris; settings: in vivo
[2] = MRT in Crl:CD(SD) rat at 1 mg/kg, po by LC-MS/MS analysis; assay type: ADME, organism-based; settings: in vivo
[3] = Clearance in rat liver microsomes at 1 uM after 15 mins in presence of NADPH by UPLC analysis; assay type: ADME, microsome; settings: read-out: CLH
[4] = Total clearance in Crl:CD(SD) rat at 0.1 mg/kg, iv by LC-MS/MS analysis; assay type: ADME, organism-based; settings: in vivo
Rhesus monkey = assay: Toxicity in monkey assessed as convulsion administered via oral gavage; set-up: species or system Macaca mulatta; settings: in vivo
Rattus norvegicus [5] = assay: Anabolic effect in castrated CD(SD)IGS rat assessed as levator ani muscle weight at 2.5 mg/kg, po bid for 4 days co-treated with testosterone propionate by Harshberger assay relative to control; assay type: functional
Glucocorticoid receptor = molecular target: T1, Glucocorticoid receptor (Homo sapiens, UniProt P04150); assay: Binding affinity to GR (unknown origin)
T1 sequence (P04150 whole entry): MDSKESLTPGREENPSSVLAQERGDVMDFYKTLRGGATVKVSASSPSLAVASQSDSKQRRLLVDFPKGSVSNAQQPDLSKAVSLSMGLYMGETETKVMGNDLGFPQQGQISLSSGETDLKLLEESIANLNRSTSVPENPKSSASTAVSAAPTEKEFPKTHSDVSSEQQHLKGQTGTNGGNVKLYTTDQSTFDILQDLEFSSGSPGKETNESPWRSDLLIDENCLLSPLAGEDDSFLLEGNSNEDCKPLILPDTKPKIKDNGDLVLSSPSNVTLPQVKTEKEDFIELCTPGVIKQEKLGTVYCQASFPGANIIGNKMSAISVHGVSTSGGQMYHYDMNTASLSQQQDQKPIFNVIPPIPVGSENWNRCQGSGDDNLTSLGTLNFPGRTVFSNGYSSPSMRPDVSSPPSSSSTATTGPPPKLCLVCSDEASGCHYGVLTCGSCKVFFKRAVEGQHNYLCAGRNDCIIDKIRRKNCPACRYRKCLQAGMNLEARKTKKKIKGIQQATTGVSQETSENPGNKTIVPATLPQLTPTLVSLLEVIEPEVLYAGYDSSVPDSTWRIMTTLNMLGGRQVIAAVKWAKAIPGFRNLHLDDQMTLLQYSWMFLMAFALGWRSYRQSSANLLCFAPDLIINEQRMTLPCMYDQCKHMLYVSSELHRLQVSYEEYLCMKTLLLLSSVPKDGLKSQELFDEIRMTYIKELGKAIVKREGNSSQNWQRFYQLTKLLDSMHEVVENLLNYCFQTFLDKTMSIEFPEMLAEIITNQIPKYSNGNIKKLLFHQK

[6] = Clearance in mouse liver microsomes at 1 uM after 60 mins in presence of NADPH by UPLC analysis; assay type: ADME, microsome; settings: read-out: CLH
Rattus norvegicus [7] = assay: Induction of sexual behavior in castrated CD(SD)IGS rat assessed as pseudopregnancy rate at 0.5 mg/kg, po qd for 21 days measured on day 18 to 21 relative to control; assay type: functional

SMILES: CC[C@H]1[C@@H](O)CC(=O)N1c1ccc(C#N)c(C(F)(F)F)c1
- Vd [1]: 1.47 L/kg
- Activity (Canis familiaris): Non-Toxic
- MRT [2]: 3.06 h
- microsomal CLint at 1 µM [3]: 20 to 21 µL/min/mg
- clearance [4]: 15.6 mL/min/kg
- Activity (Rhesus monkey): Toxic
- Activity (Rattus norvegicus [5]): 129%
- IC50 (Glucocorticoid receptor): > 10 µM
- microsomal CLint at 1 µM [6]: 3 µL/min/mg
- Activity (Rattus norvegicus [7]): 100%
